In ChEMBL document CHEMBL1759834, “Synthesis, stereochemistry, antimicrobial evaluation and QSAR studies of 2,6-diaryltetrahydropyran-4-one thiosemicarbazones” (2011):
Values after ≈ are worked out from the molar mass of the structure shown.

Assays:
[1] = test system: Staphylococcus aureus; assay: Antibacterial activity against Staphylococcus aureus ATCC 25825 after 24 hrs by twofold serial dilution method; type: functional
[2] = test system: Escherichia coli; assay: Antibacterial activity against Escherichia coli ATCC 25835 after 24 hrs by twofold serial dilution method; type: functional
[3] = test system: Pseudomonas aeruginosa; assay: Antibacterial activity against Pseudomonas aeruginosa ATCC 10145 after 24 hrs by twofold serial dilution method; type: functional
[4] = test system: Salmonella typhi; assay: Antibacterial activity against Salmonella typhi ATCC 24915 after 24 hrs by twofold serial dilution method; type: functional, Salmonella enterica subsp. enterica serovar Typhi; conditions: Salmonella enterica, ATCC 24915, 24 h
[5] = test system: Bacillus subtilis; assay: Antibacterial activity against Bacillus subtilis ATCC 451 after 24 hrs by twofold serial dilution method; type: functional
[6] = test system: Klebsiella pneumoniae; assay: Antibacterial activity against Klebsiella pneumoniae ATCC 15490 after 24 hrs by twofold serial dilution method; type: functional
[7] = test system: Cryptococcus neoformans; assay: Antifungal activity against Cryptococcus neoformans after 72 to 96 hrs by twofold serial dilution method; type: functional
[8] = test system: Candida albicans; assay: Antifungal activity against Candida albicans after 24 hrs by twofold serial dilution method; type: functional
[9] = test system: Aspergillus niger; assay: Antifungal activity against Aspergillus niger after 72 to 96 hrs by twofold serial dilution method; type: functional

Question: Which results are given for `COc1cccc([C@H]2O[C@@H](c3cccc(OC)c3)[C@H](C)/C(=N/NC(=S)Nc3ccccc3)[C@H]2C)c1`?
Answer: -logMIC [1]: 4.903; MIC ([1]; Staphylococcus aureus, ATCC 25825, 24 h): 12.5 µg/mL (≈ 25.5 µM); -logMIC [2]: 4.301; MIC ([2]; Escherichia coli, ATCC 25835, 24 h): 50 µg/mL (≈ 102 µM); -logMIC [3]: 3.698; MIC ([3]; Pseudomonas aeruginosa, ATCC 10145, 24 h): 200 µg/mL (≈ 408 µM); MIC [4]: 50 µg/mL (≈ 102 µM); -logMIC [5]: 4.903; MIC ([5]; Bacillus subtilis, ATCC 451, 24 h): 12.5 µg/mL (≈ 25.5 µM); -logMIC [6]: 4; MIC ([6]; Klebsiella pneumoniae, ATCC 15490, 24 h): 100 µg/mL (≈ 204 µM); -logMIC [7]: 4; MIC ([7]; Cryptococcus neoformans): 100 µg/mL (≈ 204 µM); -logMIC [8]: 4.602; MIC ([8]; Candida albicans, 24 h): 25 µg/mL (≈ 51.1 µM); -logMIC [9]: 4; MIC ([9]; Aspergillus niger): 100 µg/mL (≈ 204 µM)
